Measurements taken from patent publication US20070099822A1, “Regulation of tissue mineralization and phosphate metabolism by asarm peptides” (priority 2003, published 2007).
Entries after “also recorded” stand apart in the source; their conditions may differ.

Key:
male ICR Swiss mice = assay: Example VI: subcutaneous PO4-ASARM-peptide or etidronate, calcein fluorescence and Sanderson osteoid staining; type: in vivo; settings: four layers visible in vehicle group
Protocol: Subcutaneous administration of PO4-ASARM-peptide, etidronate (EHDP), and calcein. Three separate groups of male ICR Swiss mice (4-5 weeks) were subcutaneously injected once a day (9:00AM), for 12 days except for days 6 and 7 with 50 μL solutions of either (1) Eitidronate (EHDP) (10 mg/kg/day); (2) PO4-ASARM-peptide (2 mg/kg/day); or (3) vehicle consisting of 5 mM HEPES pH 7.4/150 mM NaCL/0.1% BSA. The synthetic PO4-ASARM-peptide was dissolved in vehicle (1.0 mg/mL). Etidronate was first dissolved in 150 mM NaCl and then buffered to pH 7.5 with 1M NaOH to give a 5 mg/mL solution. The 10 mg/kg/day doses of etidronate have previously been reported to inhibit mineralization in rats and were used as positive controls (Trechsel, et al., Am J Physiol 232(3):E298-305, 1977; Bonjour, et al., Am J Physiol 229(2):402-8, 1975). All three groups were subcutaneously injected with calcein (20 mg/kg/day) on days 3, 5, […]. The degree of calcein fluorescence and/or fluorescence-quenching is an indicator of mineralization status (see next section). The calcein injections when given were administered 1 h after the daily injections of PO4-ASARM-peptide, EHDP or vehicle. Animals were then terminated humanely and calvariae plus femurs/tibia were fixed in 70% ethanol (non-decalcified). After fluorescence imaging (see FIG. 35) calvariae were processed in plastic and stained with Sanderson's stain (see below). Five animals per group were used for statistical analysis of fluorescence quenching and histological Sanderson staining.
Calcein fluorescence in mice calvariae, hind-limbs & fluor-imager analysis of mineralization. A Bio-Rad (Hercules, Calif.) FluorImager^max fluorescent imager was used to simultaneously image all the samples from each of the 3 groups (15 animals; five animals per group). This consisted of 10 tibia/femurs and 5 calvariae per group. Samples were placed on top of the FluorImager plate contained within a light-tight box. Ultra-violet light was used to generate calcein-mediated epi-fluorescence and the fluorescent-image was captured on a −40° C., peltier-cooled, 1,340×1040 pixel CCD resolution, CCD digital-camera. Quantitation of fluorescence was carried out using Quantity-1 (Bio-Rad, Hercules, Calif.) fluorescence-software. Pixel saturation was prevented by internal software calibration and exposure adjustment. All fluorescence readings were thus accurately quantitative and non-saturating. Photo-micrographic UV fluorescent analysis of calvarial cross sections embedded in plastic and mounted as slides (<100 micrometer sections) was also undertaken and a description of the fixation and processing is given in the next section.
Sanderson-staining and fluorescence detection of calvarial osteoid & mineralized bone. Staining of non-decalcified calvarial sections was performed using the method described by Sanderson and Bachus (Staining technique to differentiate mineralized and demineralized bone in ground sections, J Histotechnol 20(2): 119-122, 1997). This technique provides differential staining between unmineralized osteoid and mineralized bone. Prior to staining, calvariae were dissected and attached tissue removed. Calvariae were then placed in 70% ethanol for further fixation as described by Sanderson and Bachus (supra). After fixing and processing undecalcified calvariae were embedded in plastic (LR-white acrylic resin (London Resin Co., Reading, England)) as previously described (Garrett, et al., Selective inhibitors of the osteoblast proteasome stimulate bone formation in vivo and in vitro, J Clin Invest 111(11):1771-1782, 2003). Plastic embedded sections were ground to <100 micrometers using a specialized grinding-pestle as described by Donath and Breuner (A method for the study of undecalcified bones and teeth with attached soft tissues. The Sage-Schliff (sawing and grinding) technique, J Oral Pathol 11(4):318-26, 1982). […]

MEPE-PHEX interaction = molecular target: T1, MEPE-PHEX interaction (Homo sapiens, UniProt P78562); assay: Surface plasmon resonance, peptide solution competition of secPHEX-MEPE binding
T1 construct: to generate a soluble, secreted form of PHEX; made in house; host or cells: secPHEX: mammalian cells (gift, University of Montreal); MEPE: S. frugiperda insect cells
T1 sequence (P78562 46-749 limits assumed): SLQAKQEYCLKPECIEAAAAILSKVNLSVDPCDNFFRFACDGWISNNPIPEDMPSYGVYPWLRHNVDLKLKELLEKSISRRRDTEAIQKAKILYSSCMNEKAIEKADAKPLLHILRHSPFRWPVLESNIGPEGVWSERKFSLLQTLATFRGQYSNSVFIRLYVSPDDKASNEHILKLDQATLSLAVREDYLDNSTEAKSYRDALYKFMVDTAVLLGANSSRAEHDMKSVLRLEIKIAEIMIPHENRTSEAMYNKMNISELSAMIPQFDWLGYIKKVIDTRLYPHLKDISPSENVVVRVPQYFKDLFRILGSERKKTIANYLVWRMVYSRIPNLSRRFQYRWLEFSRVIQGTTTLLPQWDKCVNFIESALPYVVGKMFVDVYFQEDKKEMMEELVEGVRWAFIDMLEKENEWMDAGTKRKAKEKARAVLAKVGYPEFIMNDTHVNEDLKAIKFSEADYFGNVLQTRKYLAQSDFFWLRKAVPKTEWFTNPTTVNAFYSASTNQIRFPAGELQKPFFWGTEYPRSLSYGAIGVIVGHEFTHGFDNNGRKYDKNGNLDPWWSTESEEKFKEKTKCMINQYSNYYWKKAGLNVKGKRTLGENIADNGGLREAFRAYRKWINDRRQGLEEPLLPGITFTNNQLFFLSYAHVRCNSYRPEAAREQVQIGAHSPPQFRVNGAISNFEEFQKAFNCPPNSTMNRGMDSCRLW
Excerpt: Surface Plasmon Resonance: Synthetic peptides & competitive PHEX-MEPE binding studies. For these experiments CM-5 chips containing flow-cells immobilized with MEPE, PHEX and IgG ligands at 6000 RU were used. Just prior to SPR injection, stock solution of specific-peptide (as defined for each experiment; see Table 1), and dissolved in analyte buffer (HBS-P—Zn) […] The following equation was used to compute KDapp values: RU=Bmax/inhib×(peptide(μM))/KDapp+(peptide(μM)). The Bmax/inh value represents the maximal percentage inhibition change in RU (i.e., PHEX-MEPE binding) relative to the “non-peptide” control (0% inhibition of binding), using a constant analyte flow-solution of secPHEX of 250 nM against immobilized MEPE ligand at 6000 RU. […] The control MEPE-RGD peptide had no effect on MEPE-PHEX interactions.

Substance: H-CFSSRRRDDSSESSDSGSSSESDGD-OH [ASARM-peptide]
- lamellar calcein fluorescent layers in calvarial cross-sections (male ICR Swiss mice): complete absence
- Kd (MEPE-PHEX interaction; 250 nM secPHEX, MEPE 6000 RU, read-out: apparent KDapp, solution competition of MEPE-PHEX binding): ~35 µM
- inhibition of MEPE-PHEX interaction (MEPE-PHEX interaction; peptide pre-mixed with secPHEX, MEPE-RGD up to 85 μM): able to inhibit; also recorded: dramatic dose-dependent inhibition
